Assay results from US5434053A, “Detection of antibiotics” (Gist-Brocades N.V., priority 1992, dated 1995).

Columns and labels:
[1] = tested on: antibiotic binding protein; assay: Antibiotic residue test for β-lactams in milk (sequential assay; HRPO-labelled antibiotic binding protein, immobilized 7ACA-spacer-BSA); parameters: species or system Bacillus stearothermophilus; conditions: for sensitivity ppb: test according to Example 1, other β-lactams; for reader units expressed in %: measured at 650 nanometer
Protocol: A grown culture of an antibiotic sensitive microorganism in this example Bacillus stearothermophilus (continuous culture art. #108 Porton Products Ltd, UK) was lysed overnight at 4° C. with lysozyme, DNAse and triton X-100 in 0.1M phosphate pH 7.0. The lysate was centrifuged for 30 minutes at approximately 1600×g (4° C.). After centrifugation the supernatant was mixed with an antibiotic affinity gel matrix, for example to prepare a 7-aminocephalosporanic acid (7ACA) affinity gel matrix the following method was used.
The 7ACA-affigel and the supernatant of the lysed culture was mixed for 3 hours at 20° C. gently on a shaker. The gel was washed six times with 0.1M phosphate+1M NaCl pH 7.0. For each wash was used 500 ml.
In this example horse-radish peroxidase (HRPO) is used. 1 mg HRPO (suitable for labelling) in 1 ml of distilled water (d.i.-water) and 0.2 ml 0.1M Na-periodate was mixed 20 minutes at 20° C. and dialysed overnight at 4° C. against 0.001M Na-acetate pH 4.4. This dialysate was adjusted to pH 9.0-9.6 by adding 25 μl of 0.1M carbonate. Directly hereafter 1 mg abp (Pierce protein assay) was added into the dialysate. The mixture was gently shaken for 2 hours at room temperature. Thereafter 150 μl of 4 mg Na-borohydride/ml d.i.-water was added to the mixture, this was incubated for 2 hours at 4° C.
40 mg of 7ACA was added to 4 ml of 50 mM Hepes (pH 7.5) solution. After dissolving the pH was adjusted to pH 7.0 with 1N NaOH. Hereafter 20 mg BSA and 40 mg Bis(sulfosuccinicmidyl)suberate (spacer) and an extra 2 ml of 50 mM Hepes solution was added. The mixture was gently shaken for 45 minutes at 20° C.
0.125 ml dialysate (7ACA-spacer-BSA conjugate) was added to 500 ml carbonate pH 9.6. 0.5 ml of this solution was added to the polystyrene star tubes (NUNC MAXISORB®). Tubes were covered and incubated overnight at 4° C. After incubation the β-lactam spacer protein conjugate dilution was removed from the tubes and 2 ml 0.05M phosphate+0.5% BSA+2% sucrose+0.1M glycine pH 7.2 was added to each tube. After 1 hour at 20° C. the tubes were emptied and dried for 48 hours at 22°-27° C. with less than 30% humidity. Dried tubes are stable for at least 1 year at 4° C.
0.2 ml of milk sample and 0,2 ml of a diluted abp-enzyme conjugate was added to an empty reaction ampoule. After incubation for 2 minutes at 64° C. the contents of the tube was transferred to the coated tube. After the second incubation of 2 minutes at 64° C. the contents of the coated tube was dumped into the sink and the tubes were washed three times with 50×diluted wash solution by filling the tubes, dumping the contents into the sink and removing residuals by tapping on absorbent paper. After the wash, 0.5 ml of TM-blue® colour-substrate was added into the tube. This incubation for 4 minutes at room temperature was stopped by adding 0.5 ml of stop solution (1.5% NaF). The colour development at 650 nm was compared with an antibiotic standard tested along with the sample.

[2] = tested on: anti-gentamycin-rabbit antibody; assay: Antibiotic residue test for gentamycin in milk (sequential assay; antibody/HRPO-protein A conjugate, immobilized gentamycin-spacer-BSA); format: binding; conditions: for reader units expressed in %: measured at 650 nanometer
Protocol: The gentamycin assay is in general developed with the same basics as the β-lactam-assay. We will therefore give in this example the same outline as the β-lactam assay of Example 1 with description of differences.
A commercial anti-gentamycin-rabbit antibody is obtained from Biodesign International, Kennebunkport, Me., U.S.A. The anti-gentamycin-rabbit antiserum is absorbed to remove the bovine serum albumin (BSA) carrier antibodies. A solution containing 10 mg/ml sulfosuccinicmidylsuberate-BSA and 2 mg of unreacted BSA is mixed with the raw antiserum in the ratio of 10 to 1. This removes all detectable reactivity with BSA.
Absorbed anti-gentamycin antiserum is reacted with horseradish peroxidase labelled Staphylococcus aureus protein A to form an antibiotic binding protein enzyme conjugate. An optimal ratio of antibody to protein A is determined by forming the assay with checkerboard titrations of the two components diluted in phosphate buffered saline containing 1% BSA.
In this example gentamycin is used for conjugation to Bovine Serum Albumin (BSA). A spacer between gentamycin and the BSA is used to obtain the best affinity and specificity. The spacer is the same as used in Example 1.
As described in the β-lactam test, the gentamycin-spacer-protein conjugate is coated to a solid phase.
The same test method as described in Example 1 for the β-lactam test can be used for the gentamycin test. However, this test uses all incubations at a temperature of 20° C.

## CC1(C)S[C@@H]2[C@H](NC(=O)[C@H](N)c3ccc(O)cc3)C(=O)N2[C@H]1C(=O)O [Amoxicillin]
[1]
  sensitivity ppb: 5 ppb

## CC1(C)S[C@@H]2[C@H](NC(=O)[C@H](N)c3ccccc3)C(=O)N2[C@H]1C(=O)O [Ampicillin]
[1]
  sensitivity ppb: 10 ppb

## CO/N=C(\C(=O)N[C@@H]1C(=O)N2C(C(=O)O)=C(CSC(=O)c3ccco3)CS[C@H]12)c1csc(N)n1 [Ceftiofur]
[1]
  sensitivity ppb: 5 ppb

## CC(=O)OCC1=C(C(=O)O)N2C(=O)[C@@H](NC(=O)CSc3ccncc3)[C@H]2SC1 [Cephapirin]
[1]
  sensitivity ppb: 5 ppb

## CC1(C)S[C@@H]2[C@H](NC(=O)Cc3ccccc3)C(=O)N2[C@H]1C(=O)O [Pen. G, benzylpenicillin]
[1]; 1.25 ppb Pen. G present in sample, milk
  reader units expressed in %: 96%
[1]; 2 ppb Pen. G present in sample, milk
  reader units expressed in %: 69%
[1]; 3 ppb Pen. G present in sample, milk
  reader units expressed in %: 65%
[1]; 4 ppb Pen. G present in sample, milk
  reader units expressed in %: 51%
[1]; 5 ppb Pen. G present in sample, milk
  reader units expressed in %: 47%
[1]; 10 ppb Pen. G present in sample, milk
  reader units expressed in %: 32%
[1]; milk, total incubation time 8 minutes (test time not exceeding about 12 minutes)
  lowest detectable benzylpenicillin residue (test sensitivity): 5 ppb

## gentamycin [gentamycine]
[2]; 2.5 ppb gentamycine present in sample
  reader units expressed in %: 55%
[2]; 5 ppb gentamycine present in sample
  reader units expressed in %: 39%
[2]; 10 ppb gentamycine present in sample
  reader units expressed in %: 31%
[2]; 20 ppb gentamycine present in sample
  reader units expressed in %: 23%
[2]; 30 ppb gentamycine present in sample
  reader units expressed in %: 20%
[2]; 36 ppb gentamycine present in sample
  reader units expressed in %: 18%
[2]; milk, all incubations at 20° C.
  detectable gentamycin residue, can be lowered to (referred to Table III): 2.5 ppb
[2]; milk, total incubation time 8 minutes, all incubations at 20° C.
  lowest detectable gentamycin residue: 30 ppb
